Assay results from patent US8309718B2, “4-pyrazolyl-N-arylpyrimidin-2-amines and 4-pyrazolyl-N-heteroarylpyrimidin-2-amines as janus kinase inhibitors” (Incyte Corporation, priority 2007, dated 2012).

Target: T1, human JAK2 (Homo sapiens, UniProt O60674)
T1 construct: JAK2 (a.a. 828-1132); His tag (N); made in house; host or cells: insect cells (baculovirus)
Assay: In vitro JAK kinase assay (HTRF, phosphorylation of biotinylated peptide)
Assay type: biochemical
Conditions: catalytic domain a.a. 828-1132, 30 μM ATP, 500 nM peptide, room temperature 1 hr; read-out: JAK-2 IC50
Summary of the method: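 His-tagged human JAK2 catalytic domain (a.a. 828-1132), baculovirus/insect-cell expressed; phosphorylation of 500 nM biotinylated peptide at 30 μM ATP in 50 mM Tris pH 7.8, 100 mM NaCl, 5 mM DTT, 0.01% BSA. 1 h at room temperature, EDTA stop, HTRF read (Eu-Py20/SA-APC); IC50.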

T1 sequence (O60674 828-1132): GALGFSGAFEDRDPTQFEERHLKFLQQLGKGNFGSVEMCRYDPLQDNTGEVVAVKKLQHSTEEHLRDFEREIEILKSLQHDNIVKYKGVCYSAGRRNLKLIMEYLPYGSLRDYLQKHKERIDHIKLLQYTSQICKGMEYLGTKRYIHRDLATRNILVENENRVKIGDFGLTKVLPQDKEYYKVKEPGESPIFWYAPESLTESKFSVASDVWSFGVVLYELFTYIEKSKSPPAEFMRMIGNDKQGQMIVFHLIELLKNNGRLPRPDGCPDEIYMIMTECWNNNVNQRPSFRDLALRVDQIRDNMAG

Structure (SMILES) | IC50 [nM]
N#CCC(CC1CCNCC1)n1cc(-c2ccnc(Nc3ccc(N4CCOCC4=O)cc3)n2)cn1 (racemic) [Example 92, 3-(4-(2-(4-(3-oxomorpholino)phenylamino)pyrimidin-4-yl)-1H-pyrazol-1-yl)-4-(piperidin-4-yl)butanenitrile] | > 100
COc1cnc(Nc2ccc(C(=O)N(C)C)cc2)nc1-c1cnn(C(CC#N)C2CCCC2)c1 (racemic) [Example 104, 4-(4-(1-(2-cyano-1-cyclopentylethyl)-1H-pyrazol-4-yl)-5-methoxypyrimidin-2-ylamino)-N,N-dimethylbenzamide] | < 100
COCC(C)NC(=O)c1ccc(Nc2ncc(C)c(-c3cnn(C(CC#N)C4CCCC4)c3)n2)cc1 (mixture of isomers) [Example 87, 4-(4-(1-(2-cyano-1-cyclopentylethyl)-1H-pyrazol-4-yl)-5-methylpyrimidin-2-ylamino)-N-(1-methoxypropan-2-yl)benzamide] | < 100
N#CCC(C1CCCC1)n1cc(-c2ccnc(Nc3cccc(C(=O)N4CCC(c5ccccc5)CC4)c3)n2)cn1 (racemic) [Example 155, 3-cyclopentyl-3-(4-(2-(3-(4-phenylpiperidine-1-carbonyl)phenylamino)pyrimidin-4-yl)-1H-pyrazol-1-yl)propanenitrile] | < 100
Cc1cnc(Nc2ccc(N3CCOCC3)cc2)nc1-c1cnn(C(CC#N)CC2CCN(C(=O)c3ccc(F)cc3F)CC2)c1 (racemic) [Example 62, 4-(1-(2,4-difluorobenzoyl)piperidin-4-yl)-3-(4-(5-methyl-2-(4-morpholinophenylamino)pyrimidin-4-yl)-1H-pyrazol-1-yl)butanenitrile] | < 100
N#CCC(C1CCCC1)n1cc(-c2ccnc(Nc3cccc(C(=O)N4CCC(Cc5cccnc5)CC4)c3)n2)cn1 (racemic) [Example 144, 3-cyclopentyl-3-(4-(2-(3-(4-(pyridin-3-ylmethyl)piperidine-1-carbonyl)phenylamino)pyrimidin-4-yl)-1H-pyrazol-1-yl)propanenitrile] | < 100
COc1cnc(Nc2ccc(N3CCCCC3=O)cc2)nc1-c1cnn(C(CC#N)C2CCCC2)c1 (racemic) [Example 135, 3-cyclopentyl-3-(4-(5-methoxy-2-(4-(2-oxopiperidin-1-yl)phenylamino)pyrimidin-4-yl)-1H-pyrazol-1-yl)propanenitrile] | < 100
Cc1nccc(-c2cccc(Nc3nccc(-c4cnn(C5(CC#N)CN(S(=O)(=O)C6CC6)C5)c4)n3)c2)n1 [Example 20, 2-(1-(cyclopropylsulfonyl)-3-(4-(2-(3-(2-methylpyrimidin-4-yl)phenylamino)pyrimidin-4-yl)-1H-pyrazol-1-yl)azetidin-3-yl)acetonitrile] | < 100
N#CCC(C1CCCC1)n1cc(-c2ccnc(Nc3ccc(C(=O)NCC4CCOCC4)cc3)n2)cn1 (racemic) [Example 214, 4-(4-(1-(2-cyano-1-cyclopentylethyl)-1H-pyrazol-4-yl)pyrimidin-2-ylamino)-N-((tetrahydro-2H-pyran-4-yl)methyl)benzamide] | < 100
COc1cnc(Nc2ccc(-n3cccn3)cc2)nc1-c1cnn(C(CC#N)C2CCCC2)c1 (racemic) [Example 102, 3-(4-(2-(4-(1H-pyrazol-1-yl)phenylamino)-5-methoxypyrimidin-4-yl)-1H-pyrazol-1-yl)-3-cyclopentylpropanenitrile] | < 100
N#CCC(C1CCCC1)n1cc(-c2ccnc(Nc3cccc(C(=O)NCCc4cccnc4)c3)n2)cn1 (racemic) [Example 161, 3-(4-(1-(2-cyano-1-cyclopentylethyl)-1H-pyrazol-4-yl)pyrimidin-2-ylamino)-N-(2-(pyridin-3-yl)ethyl)benzamide] | < 100
N#CCC(C1CCCC1)n1cc(-c2ccnc(Nc3ccc(-n4cccn4)cc3)n2)cn1 (racemic) [Example 34, 3-(4-(2-(4-(1H-pyrazol-1-yl)phenylamino)pyrimidin-4-yl)-1H-pyrazol-1-yl)-3-cyclopentylpropanenitrile] | < 100
N#CCC1(n2cc(-c3ccnc(Nc4ccc(-n5cccn5)cc4)n3)cn2)CCN(C(=O)c2ccno2)CC1 (racemic) [Example 12, 2-(4-(4-(2-(4-(1H-pyrazol-1-yl)phenylamino)pyrimidin-4-yl)-1H-pyrazol-1-yl)-1-(isoxazole-5-carbonyl)piperidin-4-yl)acetonitrile] | < 100
N#CCC(CC1CCN(C(=O)c2ccc(F)cc2F)CC1)n1cc(-c2ccnc(Nc3cccc(-c4cnco4)c3)n2)cn1 (racemic) [Example 7, 4-(1-(2,4-difluorobenzoyl)piperidin-4-yl)-3-(4-(2-(3-(oxazol-5-yl)phenylamino)pyrimidin-4-yl)-1H-pyrazol-1-yl)butanenitrile] | < 100

The remaining lines, values ahead:

IC50 [nM] | Structure (SMILES)
< 100 | Cc1cnc(Nc2ccc(N3CCOCC3)cc2)nc1-c1cnn(C(CC#N)C2CCCC2)c1 (racemic) [Example 72, 3-cyclopentyl-3-(4-(5-methyl-2-(4-morpholinophenylamino)pyrimidin-4-yl)-1H-pyrazol-1-yl)propanenitrile]
< 100 | CC(=O)N[C@@H]1CCN(C(=O)c2ccc(Nc3nccc(-c4cnn(C5(CC#N)CC(C#N)C5)c4)n3)cc2)C1 (stereo partly drawn) [Example 299, (R)—N-(1-(4-(4-(1-(3-cyano-1-(cyanomethyl)cyclobutyl)-1H-pyrazol-4-yl)pyrimidin-2-ylamino)benzoyl)pyrrolidin-3-yl)acetamide]
< 100 | Cc1cnc(Nc2ccc(N)cc2)nc1-c1cnn(C(CC#N)C2CCCC2)c1 (racemic) [Example 85, 3-(4-(2-(4-aminophenylamino)-5-methylpyrimidin-4-yl)-1H-pyrazol-1-yl)-3-cyclopentylpropanenitrile]
< 100 | Cc1cc(OC2CCC(CC#N)(n3cc(-c4ccnc(Nc5ccc(N6CCOCC6=O)cc5)n4)cn3)CC2)no1 (single isomer, unassigned) [Example 244, 2-(4-(5-methylisoxazol-3-yloxy)-1-(4-(2-(4-(3-oxomorpholino)phenylamino)pyrimidin-4-yl)-1H-pyrazol-1-yl)cyclohexyl)acetonitrile]
< 100 | CCS(=O)(=O)N1CC(CC#N)(n2cc(-c3ccnc(Nc4ccc(C(=O)N5CC[C@H](OC)C5)cc4)n3)cn2)C1 [Example 277, (S)-2-(1-(ethylsulfonyl)-3-(4-(2-(4-(3-methoxypyrrolidine-1-carbonyl)phenylamino)pyrimidin-4-yl)-1H-pyrazol-1-yl)azetidin-3-yl)acetonitrile]
< 100 | N#CCC(C1CCC1)n1cc(-c2ccnc(Nc3ccc(-n4cccn4)cc3)n2)cn1 (racemic) [Example 173, 3-(4-(2-(4-(1H-pyrazol-1-yl)phenylamino)pyrimidin-4-yl)-1H-pyrazol-1-yl)-3-cyclobutylpropanenitrile]
< 100 | Cc1cc(CNC(=O)c2ccc(Nc3nccc(-c4cnn(C5(CC#N)CC(C#N)C5)c4)n3)cc2)no1 (single isomer, unassigned) [Example 291, 4-(4-(1-(3-cyano-1-(cyanomethyl)cyclobutyl)-1H-pyrazol-4-yl)pyrimidin-2-ylamino)-N-((5-methylisoxazol-3-yl)methyl)benzamide]
< 100 | N#CCC(C1CCCC1)n1cc(-c2ccnc(Nc3ccc(C(N)=O)cc3)n2)cn1 (racemic) [Example 33, 4-(4-(1-(2-cyano-1-cyclopentylethyl)-1H-pyrazol-4-yl)pyrimidin-2-ylamino)benzamide]
< 100 | CC(=O)N1CCC(C(CC#N)n2cc(-c3ccnc(Nc4ccc(N5CCOCC5)cc4)n3)cn2)CC1 (racemic) [Example 26, 3-(1-acetylpiperidin-4-yl)-3-(4-(2-(4-morpholinophenylamino)pyrimidin-4-yl)-1H-pyrazol-1-yl)propanenitrile]
< 100 | CCS(=O)(=O)N1CC(CC#N)(n2cc(-c3ccnc(Nc4ccc(C(=O)N5CCN(C)CC5)cc4)n3)cn2)C1 [Example 279, 2-(1-(ethylsulfonyl)-3-(4-(2-(4-(4-methylpiperazine-1-carbonyl)phenylamino)pyrimidin-4-yl)-1H-pyrazol-1-yl)azetidin-3-yl)acetonitrile]
< 100 | CC(=O)Nc1cccc(Nc2nccc(-c3cnn(C(CC#N)C4CCCC4)c3)n2)c1 (racemic) [Example 117, N-(3-(4-(1-(2-cyano-1-cyclopentylethyl)-1H-pyrazol-4-yl)pyrimidin-2-ylamino)phenyl)acetamide]
< 100 | N#CCC(C1CCCC1)n1cc(-c2ccnc(Nc3cccc(C(=O)N4CCC(c5ccccn5)C4)c3)n2)cn1 (mixture of isomers) [Example 152, 3-cyclopentyl-3-(4-(2-(3-(3-(pyridin-2-yl)pyrrolidine-1-carbonyl)phenylamino)pyrimidin-4-yl)-1H-pyrazol-1-yl)propanenitrile]
< 100 | N#CCC(C1CC1)n1cc(-c2ccnc(Nc3ccc(C(=O)N4CC[C@@H](C#N)C4)cc3)n2)cn1 (mixture of isomers) [Example 264, (3R)-1-(4-(4-(1-(2-cyano-1-cyclopropylethyl)-1H-pyrazol-4-yl)pyrimidin-2-ylamino)benzoyl)pyrrolidine-3-carbonitrile]
< 100 | CC(=O)Nc1ccc(Nc2ncc(C)c(-c3cnn(C(CC#N)CC4CCN(C(=O)c5ccc(F)cc5F)CC4)c3)n2)cc1 (racemic) [Example 69, N-(4-(4-(1-(1-cyano-3-(1-(2,4-difluorobenzoyl)piperidin-4-yl)propan-2-yl)-1H-pyrazol-4-yl)-5-methylpyrimidin-2-ylamino)phenyl)acetamide]
< 100 | Cc1cnc(Nc2ccc(-n3cccn3)cc2)nc1-c1cnn(C(CC#N)CC2CCN(S(=O)(=O)c3ccn(C)n3)CC2)c1 (racemic) [Example 63, 3-(4-(2-(4-(1H-pyrazol-1-yl)phenylamino)-5-methylpyrimidin-4-yl)-1H-pyrazol-1-yl)-4-(1-(1-methyl-1H-pyrazol-3-ylsulfonyl)piperidin-4-yl)butanenitrile]
